Experimental findings from patent EP0271829A2, “Delta-hydroxy-beta-lysine derivatives and their production” (Takeda Chemical Industries, Ltd., priority 1986, dated 1988) are described below.

SMILES strings stand for the structures. Converted amounts (≈) assume the structure as drawn.

The subject of one test is S. aureus 308A-1. The test can be described thus: Antibacterial activity against gram-positive bacteria (MIC on Tripticase Soy Agar). The following applies: Staphylococcus aureus, 308A1, Medium: Tripticase Soy Agar, Inoculum size: 10^8 cfu/ml. The class given is cell-based. An excerpt: (§1) Thus obtained Compound (I) is useful as medicines, for example, antibiotics against certain types of gram-positive and gram-negative beacteria. [table] [table]
A word on the MIC: it is the lowest concentration found to suppress growth. A lower MIC goes with a more susceptible organism. As for `C/C=C\C=C\C(=O)NCC(O)CC(CC(=O)NCCC(=N)N)NCC` (stereo not shown) [Compound 82], the MIC was greater than 100 µg/mL.

In turn, `CN(CC(=O)O)NC(=O)C[C@H](N)C[C@@H](O)CN` [Negamycin, 2-(3R,5R)-3,6-diamino-5-hydroxyhexanoyl-1-methylhydrazinoacetic acid, reference compound] gave an MIC greater than 100 µg/mL.

Regarding `C/C=C\C=C\C(=O)NCC(O)CC(CC(=O)NCCC(=N)N)NC(=O)C(N)CCCCC(=O)OC` (stereo not shown) [Compound 86b], the MIC was greater than 100 µg/mL.

`C=C/C=C/C(=O)NCC(O)CC(N)CC(=O)NCCC(=N)N` (stereo not shown) [Compound 38b] displayed an MIC of 100 µg/mL (≈ 321 µM).

As to `C/C=C\C=C\C(=O)NCC(O)CC(CC(=O)NCCC(=N)N)NC` (stereo not shown) [Compound 80], the MIC was greater than 100 µg/mL.

The next test has as its system S. aureus 308A-1. As to the kind of experiment: Antibacterial activity in mice, s.c. (ED50). Format: in vivo. The note with it: Staphylococcus aureus, 308A1, sc.
Excerpt: as §1
A word on the ED50: it is the midpoint of the dose-response relation. Compound `C/C=C\C=C\C(=O)NCC(O)CC(CC(=O)NCCC(=N)N)NCC` (stereo not shown) [Compound 82] had an ED50 of 25 mg/kg.

`CN(CC(=O)O)NC(=O)C[C@H](N)C[C@@H](O)CN` [Negamycin, 2-(3R,5R)-3,6-diamino-5-hydroxyhexanoyl-1-methylhydrazinoacetic acid, reference compound] registered an ED50 of 38.6 mg/kg.

`C/C=C\C=C\C(=O)NCC(O)CC(CC(=O)NCCC(=N)N)NC(=O)C(N)CCCCC(=O)OC` (stereo not shown) [Compound 86b]: the ED50 stood at 25 mg/kg.

On to `C=C/C=C/C(=O)NCC(O)CC(N)CC(=O)NCCC(=N)N` (stereo not shown) [Compound 38b], for which the ED50 was determined as 6.25 mg/kg.

In turn, `C/C=C\C=C\C(=O)NCC(O)CC(CC(=O)NCCC(=N)N)NC` (stereo not shown) [Compound 80] showed an ED50 of 9.64 mg/kg.
